What was measured:
[1] = system: recurrent glioblastoma (GBM); test: Phase IIa trial of cilengitide single agent therapy in recurrent glioblastoma; assay type: in vivo, human
Protocol: Background: The present phase IIa study was designed to evaluate the safety, toxicity, and clinical activity of the cyclic RGD pentapeptide cilengitide ((=cyclo-(Arg-Gly-Asp-DPhe-NMe-Val)), an inhibitor of integrins αvβ3 and αvβ5, as a single agent at doses of 500 and 2000 mg in patients (pts) with recurrent glioblastoma (GBM).
Methods: In this multicenter, open-label, randomized, uncontrolled study, pts with GBM and measurable disease that had relapsed after previous therapy with temozolomide and radiotherapy were randomized to receive cilengitide at doses of either 500 mg or 2000 mg i.v., 2×/week, until progression. Histopathology diagnosis and MRI imaging were subject to independent blinded review. The primary endpoint was Progression Free Survival (PFS) at 6 months (mths). Secondary endpoints included response, survival, time to disease progression, safety, tolerability and pharmacokinetics.

[2] = system: newly diagnosed glioblastoma (GBM); test: Phase I/IIa trial of cilengitide with temozolomide and radiotherapy in newly diagnosed glioblastoma; assay type: in vivo, human; conditions: cilengitide 500 mg + TMZ/RT
Protocol: Purpose: To evaluate safety, toxicity, and efficacy of the combination of the cyclic RGD pentapeptide Cilengitide (=cyclo-(Arg-Gly-Asp-DPhe-NMe-Val)), an inhibitor of integrins αvβ3 and αvβ5, in addition to standard temozolomide (TMZ) and radiotherapy (RT).
Patients and methods: Fifty-two pts (PS 0-1: 92%, 2: 8%; median age 57 yrs) after biopsy (n= 9/17%) or tumor resection (n= 43/83%) were treated with standard TMZ/RT (Stupp et al. NEJM 2005). In addition Cilengitide (500 mg i.v., 2×/week) was started one week before TMZ/RT and given throughout for the duration of chemotherapy or until progression. Primary endpoint was progression free survival rate at 6 months (target: 65%). Patients were followed with MRI every 2 months. Histopathologic diagnosis and MRI imaging were independently reviewed, MGMT promotor methylation status was assessed in 45 (86.5%) pts.

[3] = system: various brain tumors; conditions: human, in vivo; cited from earlier work

CC(C)[C@H]1C(=O)N[C@@H](CCCN=C(N)N)C(=O)NCC(=O)N[C@@H](CC(=O)O)C(=O)N[C@H](Cc2ccccc2)C(=O)N1C [cilengitide, cyclo-(Arg-Gly-Asp-DPhe-NMeVal)]
pts who received 12 or more cycles of therapy ([1]; 500 mg): 4 pts | pts who received 12 or more cycles of therapy ([1]; 2000 mg): 6 pts | tumor control, 2000 mg vs 500 mg ([1]; 2000 mg 2x/week, not statistically significant): trend towards better tumor control | Treatment related NCI CTC grade 3 AE: arthralgia/myalgia ([1]; at 500 mg): 1 patient | Treatment related NCI CTC grade 3 AE: elevated liver enzymes ([1]; at 500 mg): 1 patient | Treatment related NCI CTC grade 3 AE: weight increase/edema ([1]; at 2000 mg): 1 patient | single agent activity in recurrent glioblastoma ([1]; in vivo): advantageous single agent activity | non-hematologic grade 3: constitutional symptoms (asthenia, fatigue, anorexia) [2]: 3 n | non-hematologic grade 3: deep venous thrombosis and pulmonary embolism [2]: 1 n | non-hematologic grade 3: elevated liver function tests [2]: 1 n | sigmoid perforation (grade 2) ([2]; patient with history of sigmoid diverticulosis): One patient | MTD [3]: no known MTD
